Columns and labels:
Format in all cases: in vivo
[1] = tested on: barnyardgrass (Echinochloa crus-galli); test: Test A pre-/postemergence: barnyardgrass
How it was run: (§1)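 Soil medium was loam blended with sand; treatments pre- and postemergence were applied concurrently, postemergence at one- to two-leaf stage. Approximately ten days in greenhouse preceded visual comparison with untreated controls, scored 0 (no effect) to 100 (complete control).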

[2] = tested on: crabgrass, large (large crabgrass, Digitaria sanguinalis); test: Test A pre-/postemergence: crabgrass, large
How it was run: as §1

[3] = tested on: foxtail, giant (giant foxtail, Setaria faberii); test: Test A pre-/postemergence: foxtail, giant
How it was run: as §1

[4] = tested on: morningglory (Ipomoea spp.); test: Test A pre-/postemergence: morningglory
How it was run: as §1

[5] = tested on: pigweed (Amaranthus retroflexus); test: Test A pre-/postemergence: pigweed
How it was run: as §1

[6] = tested on: velvetleaf (Abutilon theophrasti); test: Test A pre-/postemergence: velvetleaf
How it was run: as §1

[7] = tested on: wheat (Triticum aestivum); test: Test A pre-/postemergence: wheat
How it was run: as §1

[8] = tested on: corn (Zea mays); test: Test A pre-/postemergence: corn
How it was run: as §1

[9] = tested on: rice (Oryza sativa); test: Test C flooded paddy test: rice; conditions: scale 0 to 100 (0 no effect, 100 complete control)
How it was run: (§2)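 Visual ratings from 0 (no effect) to 100 (complete control), made against untreated controls 13 to 15 days after treatment, express plant response. Compounds went directly into paddy water over 2-leaf stage plants in pots flooded to 3 cm.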

[10] = tested on: sedge, umbrella (small-flower umbrella sedge, Cyperus difformis); test: Test C flooded paddy test: sedge, umbrella; conditions: scale 0 to 100 (0 no effect, 100 complete control)
How it was run: as §2

[11] = tested on: ducksalad (Heteranthera limosa); test: Test C flooded paddy test: ducksalad; conditions: scale 0 to 100 (0 no effect, 100 complete control)
How it was run: as §2

[12] = tested on: barnyardgrass (Echinochloa crus-galli); test: Test C flooded paddy test: barnyardgrass; conditions: scale 0 to 100 (0 no effect, 100 complete control)
How it was run: as §2

[13] = Postemergence, 125 g ai/ha, 0 to 100 scale, 0 is no effect, 100 is complete control
[14] = Postemergence, 500 g ai/ha, visual rating on 0 to 100 scale (0 no effect, 100 complete control), approximately ten days
[15] = Preemergence, 125 g ai/ha, 0 to 100 scale (0 no effect, 100 complete control)
[16] = Preemergence, 500 g ai/ha, 0 to 100 scale, 0 is no effect, 100 is complete control
[17] = Preemergence, 125 g ai/ha, 0 to 100 scale where 0 is no effect and 100 is complete control
[18] = Flood (flooded paddy test), 125 g ai/ha, visual rating after 13 to 15 days
[19] = Flood (flooded paddy test), 250 g ai/ha, visual rating after 13 to 15 days
[20] = Postemergence, 1000 g ai/ha, visual rating on 0 to 100 scale (0 no effect, 100 complete control), approximately ten days
[21] = Preemergence, 1000 g ai/ha, 0 to 100 scale, 0 is no effect, 100 is complete control

Cc1nn(-c2ccc(C(F)(F)F)cn2)nc1C(=O)c1cccc(C(F)(F)F)c1 [Compound 107]
Barnyardgrass plant response rating [1, 13]: 30 | Barnyardgrass plant response rating [1, 14]: 60 | Plant response rating, Barnyardgrass [1, 15]: 30 | Plant response rating, Barnyardgrass [1, 16]: 80 | Crabgrass, Large plant response rating [2, 13]: 60 | Crabgrass, Large plant response rating [2, 14]: 90 | Plant response rating, Crabgrass, Large [2, 15]: 100 | Plant response rating, Crabgrass, Large [2, 16]: 100 | Foxtail, Giant plant response rating [3, 13]: 40 | Foxtail, Giant plant response rating [3, 14]: 90 | Plant response rating, Foxtail, Giant [3, 17]: 90 | Plant response rating, Foxtail, Giant [3, 16]: 100 | Morningglory plant response rating [4, 13]: 70 | Morningglory plant response rating [4, 14]: 80 | Plant response rating, Morningglory [4, 17]: 20 | Plant response rating, Morningglory [4, 16]: 30 | Pigweed plant response rating [5, 13]: 90 | Pigweed plant response rating [5, 14]: 100 | Plant response rating, Pigweed [5, 17]: 70 | Plant response rating, Pigweed [5, 16]: 100 | Velvetleaf plant response rating [6, 13]: 40 | Velvetleaf plant response rating [6, 14]: 50 | Plant response rating, Velvetleaf [6, 17]: 10 | Plant response rating, Velvetleaf [6, 16]: 10 | Wheat plant response rating [7, 13]: 20 | Wheat plant response rating [7, 14]: 40 | Plant response rating, Wheat [7, 17]: 0 | Plant response rating, Wheat [7, 16]: 0 | Corn plant response rating [8, 13]: 20 | Corn plant response rating [8, 14]: 30 | Plant response rating, Corn [8, 15]: 0 | Plant response rating, Corn [8, 16]: 10 | Plant response rating, Rice [9, 18]: 0 | Plant response rating, Rice [9, 19]: 25 | Plant response rating, Rice ([9]; Flood, 31 g ai/ha): 0 | Plant response rating, Rice ([9]; Flood, 62 g ai/ha): 0 | Plant response rating, Sedge, Umbrella [10, 18]: 60 | Plant response rating, Sedge, Umbrella [10, 19]: 80 | Plant response rating, Sedge, Umbrella ([10]; Flood, 31 g ai/ha): 0 | Plant response rating, Sedge, Umbrella ([10]; Flood, 62 g ai/ha): 40 | Plant response rating, Ducksalad [11, 18]: 20 | Plant response rating, Ducksalad [11, 19]: 40 | Plant response rating, Ducksalad ([11]; Flood, 31 g ai/ha): 0 | Plant response rating, Ducksalad ([11]; Flood, 62 g ai/ha): 0 | Plant response rating, Barnyardgrass [12, 18]: 20 | Plant response rating, Barnyardgrass [12, 19]: 25 | Plant response rating, Barnyardgrass ([12]; Flood, 31 g ai/ha): 0 | Plant response rating, Barnyardgrass ([12]; Flood, 62 g ai/ha): 15

Cc1nn(-c2ccc(C(F)(F)F)cn2)nc1Oc1cccc(C(F)(F)F)c1 [Compound 109]
Barnyardgrass plant response rating [1, 20]: 90 | Barnyardgrass plant response rating [1, 21]: 100 | Crabgrass, Large plant response rating [2, 20]: 90 | Crabgrass, Large plant response rating [2, 21]: 100 | Foxtail, Giant plant response rating [3, 20]: 90 | Foxtail, Giant plant response rating [3, 21]: 100 | Morningglory plant response rating [4, 20]: 90 | Morningglory plant response rating [4, 21]: 50 | Pigweed plant response rating [5, 20]: 100 | Pigweed plant response rating [5, 21]: 100 | Velvetleaf plant response rating [6, 20]: 80 | Velvetleaf plant response rating [6, 21]: 30 | Wheat plant response rating [7, 20]: 50 | Wheat plant response rating [7, 21]: 20 | Corn plant response rating [8, 20]: 90 | Corn plant response rating [8, 21]: 40 | Plant response rating, Rice [9, 18]: 15 | Plant response rating, Rice [9, 19]: 25 | Plant response rating, Rice ([9]; Flood, 31 g ai/ha): 15 | Plant response rating, Rice ([9]; Flood, 62 g ai/ha): 15 | Plant response rating, Sedge, Umbrella [10, 18]: 85 | Plant response rating, Sedge, Umbrella [10, 19]: 85 | Plant response rating, Sedge, Umbrella ([10]; Flood, 31 g ai/ha): 38 | Plant response rating, Sedge, Umbrella ([10]; Flood, 62 g ai/ha): 63 | Plant response rating, Ducksalad [11, 18]: 60 | Plant response rating, Ducksalad [11, 19]: 80 | Plant response rating, Ducksalad ([11]; Flood, 31 g ai/ha): 0 | Plant response rating, Ducksalad ([11]; Flood, 62 g ai/ha): 20 | Plant response rating, Barnyardgrass [12, 18]: 40 | Plant response rating, Barnyardgrass [12, 19]: 75 | Plant response rating, Barnyardgrass ([12]; Flood, 31 g ai/ha): 0 | Plant response rating, Barnyardgrass ([12]; Flood, 62 g ai/ha): 20

Cc1nn(-c2ccc(C(F)(F)F)cc2)nc1Oc1cccc(C(F)(F)F)c1 [Compound 111]
Barnyardgrass plant response rating [1, 13]: 20 | Barnyardgrass plant response rating [1, 14]: 30 | Plant response rating, Barnyardgrass [1, 17]: 20 | Plant response rating, Barnyardgrass [1, 16]: 80 | Crabgrass, Large plant response rating [2, 13]: 90 | Crabgrass, Large plant response rating [2, 14]: 90 | Plant response rating, Crabgrass, Large [2, 17]: 80 | Plant response rating, Crabgrass, Large [2, 16]: 100 | Foxtail, Giant plant response rating [3, 13]: 80 | Foxtail, Giant plant response rating [3, 14]: 90 | Plant response rating, Foxtail, Giant [3, 17]: 70 | Plant response rating, Foxtail, Giant [3, 16]: 100 | Morningglory plant response rating [4, 13]: 70 | Morningglory plant response rating [4, 14]: 100 | Plant response rating, Morningglory [4, 17]: 0 | Plant response rating, Morningglory [4, 16]: 30 | Pigweed plant response rating [5, 13]: 90 | Pigweed plant response rating [5, 14]: 90 | Plant response rating, Pigweed [5, 17]: 70 | Plant response rating, Pigweed [5, 16]: 90 | Velvetleaf plant response rating [6, 13]: 20 | Velvetleaf plant response rating [6, 14]: 70 | Plant response rating, Velvetleaf [6, 17]: 0 | Plant response rating, Velvetleaf [6, 16]: 50 | Wheat plant response rating [7, 13]: 10 | Wheat plant response rating [7, 14]: 40 | Plant response rating, Wheat [7, 17]: 0 | Plant response rating, Wheat [7, 16]: 0 | Corn plant response rating [8, 13]: 20 | Corn plant response rating [8, 14]: 30 | Plant response rating, Corn [8, 17]: 0 | Plant response rating, Corn [8, 16]: 20 | Plant response rating, Rice [9, 18]: 25 | Plant response rating, Rice [9, 19]: 30 | Plant response rating, Rice ([9]; Flood, 31 g ai/ha): 0 | Plant response rating, Rice ([9]; Flood, 62 g ai/ha): 0 | Plant response rating, Sedge, Umbrella [10, 18]: 80 | Plant response rating, Sedge, Umbrella [10, 19]: 85 | Plant response rating, Sedge, Umbrella ([10]; Flood, 31 g ai/ha): 45 | Plant response rating, Sedge, Umbrella ([10]; Flood, 62 g ai/ha): 65 | Plant response rating, Ducksalad [11, 18]: 70 | Plant response rating, Ducksalad [11, 19]: 80 | Plant response rating, Ducksalad ([11]; Flood, 31 g ai/ha): 0 | Plant response rating, Ducksalad ([11]; Flood, 62 g ai/ha): 30 | Plant response rating, Barnyardgrass [12, 18]: 20 | Plant response rating, Barnyardgrass [12, 19]: 35 | Plant response rating, Barnyardgrass ([12]; Flood, 31 g ai/ha): 0 | Plant response rating, Barnyardgrass ([12]; Flood, 62 g ai/ha): 0

Cc1nn(-c2ccc(C(F)(F)F)cc2)nc1Cn1ccc(C(F)(F)F)n1 [Compound 117]
Barnyardgrass plant response rating [1, 20]: 80 | Barnyardgrass plant response rating [1, 21]: 100 | Crabgrass, Large plant response rating [2, 20]: 90 | Crabgrass, Large plant response rating [2, 21]: 100 | Foxtail, Giant plant response rating [3, 20]: 90 | Foxtail, Giant plant response rating [3, 21]: 100 | Morningglory plant response rating [4, 20]: 90 | Morningglory plant response rating [4, 21]: 40 | Pigweed plant response rating [5, 20]: 100 | Pigweed plant response rating [5, 21]: 100 | Velvetleaf plant response rating [6, 20]: 100 | Velvetleaf plant response rating [6, 21]: 30 | Wheat plant response rating [7, 20]: 20 | Wheat plant response rating [7, 21]: 10 | Corn plant response rating [8, 20]: 40 | Corn plant response rating [8, 21]: 50 | Plant response rating, Rice [9, 18]: 25 | Plant response rating, Rice [9, 19]: 40 | Plant response rating, Rice ([9]; Flood, 31 g ai/ha): 15 | Plant response rating, Rice ([9]; Flood, 62 g ai/ha): 15 | Plant response rating, Sedge, Umbrella [10, 18]: 75 | Plant response rating, Sedge, Umbrella [10, 19]: 85 | Plant response rating, Sedge, Umbrella ([10]; Flood, 31 g ai/ha): 65 | Plant response rating, Sedge, Umbrella ([10]; Flood, 62 g ai/ha): 70 | Plant response rating, Ducksalad [11, 18]: 80 | Plant response rating, Ducksalad [11, 19]: 85 | Plant response rating, Ducksalad ([11]; Flood, 31 g ai/ha): 30 | Plant response rating, Ducksalad ([11]; Flood, 62 g ai/ha): 50 | Plant response rating, Barnyardgrass [12, 18]: 65 | Plant response rating, Barnyardgrass [12, 19]: 80 | Plant response rating, Barnyardgrass ([12]; Flood, 31 g ai/ha): 50 | Plant response rating, Barnyardgrass ([12]; Flood, 62 g ai/ha): 60

— patent US9302999B2, “Substituted triazoles as herbicides” (E. I. DU PONT DE NEMOURS AND COMPANY, priority 2012, dated 2016)
